According to patent US20240239842A1 (CHUGAI SEIYAKU KABUSHIKI KAISHA, priority 2021, published 2024):
Starred links: 1 amine or outer side, 2 acyl side, 3 side chain; linkers in the order of their positions; H or OH if unused. Positions of bridges follow the written chain, without caps; N, C: chain ends. Non-standard residues stand in square brackets, D forms with d. Residues, ends and D or L forms follow the SMILES beside them. *: point of attachment. hPhe(3-Cl-4-CF3) = N[C@@H](CCc1ccc(C(F)(F)F)c(Cl)c1)C(=O)O; X1 = CN([C@@H](CC1CCC(F)(F)CC1)C(=O)[*:2])[*:1]; NMePhe(4-Me) = CN[C@@H](Cc1ccc(C)cc1)C(=O)O; X4 = C#Cc1cccc(C[C@H](N[*:1])C(=O)[*:2])c1; X5 = O=C([C@H](Cc1cccc(F)c1F)N[*:1])[*:2]; Phe(3-I) = N[C@@H](Cc1cccc(I)c1)C(=O)O; X2 = CC(C)=CC[C@H](N[*:1])C(=O)[*:2]; NMeY = CN[C@@H](Cc1ccc(O)cc1)C(=O)O; NMeCha = CN[C@@H](CC1CCCCC1)C(=O)O; X6 = O=C(CN(CCN1CCNCC1)[*:1])[*:2]; X3 = C[C@H](CN(C)[*:1])C(=O)[*:2]; NMeChg = CN[C@H](C(=O)O)C1CCCCC1; NMeF = CN[C@@H](Cc1ccccc1)C(=O)O; Gly(cBu) = N[C@H](C(=O)O)C1CCC1; NMeD = CN[C@@H](CC(=O)O)C(=O)O; NMeL = CN[C@@H](CC(C)C)C(=O)O; NMehSer = CN[C@@H](CCO)C(=O)O; NMeV = CN[C@H](C(=O)O)C(C)C; d(β3hA) = C[C@@H](N)CC(=O)O; NMeS = CN[C@@H](CO)C(=O)O; Pip = O=C(O)[C@@H]1CCCCN1; NMeA = CN[C@@H](C)C(=O)O; NMeAib = CNC(C)(C)C(=O)O; Nle = CCCC[C@H](N)C(=O)O; Piperidide = C1CCN(*)CC1; Ac5c = NC1(C(=O)O)CCCC1; Aze = O=C(O)[C@@H]1CCN1; Sar = CNCC(=O)O

Experiments:
wild type KRAS(WT) = wild type KRAS(WT) (Homo sapiens, UniProt P01116); assay: Surface plasmon resonance (SPR) binding to wild type KRAS; details: SPR Biacore 8K+, Single Cycle Kinetics, 30° C., 10 μM GDP, 1:1 binding model; read-out: Dissociation Constant KD (nM) for Wild Type KRAS
mutant KRAS (G12D) = mutant KRAS (G12D) (Homo sapiens, UniProt P01116, G12D); assay: Surface plasmon resonance (SPR) binding to mutant KRAS (G12D); details: SPR Biacore 8K+, Single Cycle Kinetics, 30° C., 10 μM GDP, 1:1 binding model; read-out: Dissociation Constant KD (nM) for Mutant KRAS (G12D)

| SMILES | Kd (wild type KRAS(WT)) [nM] | Kd (mutant KRAS (G12D)) [nM] |
| --- | --- | --- |
| C#Cc1cccc(C[C@@H]2NC(=O)CN(C)C(=O)[C@H](CC3CCCCC3)N(C)C(=O)CN(C)C(=O)CN(C)C(=O)[C@H]([C@@H](C)CC)NC(=O)[C@H](C)CN(C)C(=O)C[C@@H](C(=O)N3CCCCC3)N(C)C(=O)[C@H](CC(C)C)NC(=O)C(C)(C)N(C)C(=O)[C@H](Cc3ccc(OC)cc3)NC2=O)c1 [Compound 4, (3S,9S,12S,18S,27S,30R,35S)-18-(cyclohexylmethyl)-12-[(3-ethynylphenyl)methyl]-3-isobutyl-9-[(4-methoxyphenyl)methyl]-1,6,6,7,16,19,22,25,30,32-decamethyl-27-[(1S)-1-methylpropyl]-35-(piperidine-1-carbonyl)-1,4,7,10,13,16,19,22,25,28,32-undecazacyclopentatriacontane-2,5,8,11,14,17,20,23,26,29,33-undecaone] ([X3]I[Sar][Sar][NMeCha][Sar][X4]Y(Me)[NMeAib]L[NMeD]-Piperidide; lactam N-11) | 23 | 1.5 |
| CC[C@H](C)[C@@H]1NC(=O)[C@H](CC(C)C)N(C)C(=O)C[C@@H](C(=O)N2CCCCC2)N(C)C(=O)[C@H](C2CCCCC2)N(C)C(=O)C2(CCCC2)NC(=O)CN(CCN2CCNCC2)C(=O)[C@H](CCc2ccc(C(F)(F)F)c(Cl)c2)NC(=O)CN(C)C(=O)[C@H](CC2CCCCC2)N(C)C(=O)CN(C)C(=O)CN(C)C1=O [Compound 7, (11S,17S,26S,29S,33S,36S)-11-[2-[3-chloro-4-(trifluoromethyl)phenyl]ethyl]-36-cyclohexyl-17-(cyclohexylmethyl)-29-isobutyl-15,18,21,24,30,34,37-heptamethyl-26-[(1 S)-1-methylpropyl]-9-(2-piperazine-1-ylethyl)-33-(piperidine-1-carbonyl)-6,9,12,15,18,21,24,27,30,34,37-undecazaspiro[4.33]octatriacontane-7,10,13,16,19,22,25,28,31,35,38-undecaone, reference compound] ([NMeL]I[Sar][Sar][NMeCha][Sar][hPhe(3-Cl-4-CF3)][X6][Ac5c][NMeChg][NMeD]-Piperidide; lactam N-11) | 0.94 | 0.18 |
| CC[C@H](C)[C@@H]1NC(=O)[C@H](CC(C)C)N(C)C(=O)C[C@@H](C)NC(=O)[C@H](C(C)C)N(C)C(=O)C2(CCCC2)NC(=O)[C@@H]2CCCN2C(=O)[C@H](CCc2ccc(C(F)(F)F)c(Cl)c2)NC(=O)CN(C)C(=O)[C@H](CC2CCCCC2)N(C)C(=O)[C@@H]2CCN2C(=O)[C@H](C)N(C)C1=O [Compound 6, (3S,9S,12S,17S,20S,23S,27R,30S,36S)-3-[2-[3-chloro-4-(trifluoromethyl)phenyl]ethyl]-9-(cyclohexylmethyl)-23-isobutyl-30-isopropyl-7,10,17,18,24,27,31-heptamethyl-20-[(1S)-1-methylpropyl]spiro[1,4,7,10,15,18,21,24,28,31,34-undecazatricyclo[34.3.0.012,15]nonatriacontane-33,1′-cyclopentane]-2,5,8,11,16,19,22,25,29,32,35-undecaone] (cyclo([Ac5c][NMeV][d(β3hA)][NMeL]I[NMeA][Aze][NMeCha][Sar][hPhe(3-Cl-4-CF3)]P)) | 16 | 21 |

Results, then the molecule that gave them:

| Kd (wild type KRAS(WT)) [nM] | Kd (mutant KRAS (G12D)) [nM] | SMILES |
| --- | --- | --- |
| 44 | 4.4 | CC(C)=CC[C@@H]1NC(=O)[C@H](Cc2cccc(I)c2)NC(=O)CN(C)C(=O)[C@H](CC2CCC(F)(F)CC2)N(C)C(=O)[C@@H]2CCN2C(=O)[C@@H]2CCCCN2C(=O)[C@H](C2CCC2)NC(=O)[C@H](CC(C)C)N(C)C(=O)C[C@@H](C(=O)N2CCCCC2)N(C)C(=O)[C@H](CC(C)C)NC(=O)[C@H](Cc2ccccc2)N(C)C1=O [Compound 2, (1S,6S,9S,15S,18S,21S,24S,27S,31S,34S)-21-benzyl-34-cyclobutyl-9-[(4,4-difluorocyclohexyl)methyl]-15-[(3-iodophenyl)methyl]-24,31-diisobutyl-8,11,20,26,30-pentamethyl-18-(3-methylbut-2-enyl)-27-(piperidine-1-carbonyl)-3,8,11,14,17,20,23,26,30,33,36-undecazatricyclo[34.4.0.03,6]tetracontane-2,7,10,13,16,19,22,25,29,32,35-undecanone] ([NMeL][Gly(cBu)][Pip][Aze][X1][Sar][Phe(3-I)][X2][NMeF]L[NMeD]-Piperidide; lactam N-11) |
| 43 | 2.9 | CCCC[C@@H]1NC(=O)[C@H](Cc2cccc(I)c2)NC(=O)CN(C)C(=O)[C@H](Cc2ccc(C)cc2)N(C)C(=O)CN(C)C(=O)CN(C)C(=O)[C@H]([C@@H](C)CC)NC(=O)[C@H](CCOC)N(C)C(=O)C[C@@H](C(=O)N2CCCCC2)N(C)C(=O)[C@H](CC(C)C)NC(=O)[C@H](COC)N(C)C1=O [Compound 3, (3S,6S,9S,12S,18S,27S,30S,34S)-9-butyl-12-[(3-iodophenyl)methyl]-3-isobutyl-30-(2-methoxyethyl)-6-(methoxymethyl)-1,7,16,19,22,25,31-heptamethyl-27-[(1S)-1-methylpropyl]-34-(piperidine-1-carbonyl)-18-(p-tolylmethyl)-1,4,7,10,13,16,19,22,25,28,31-undecazacyclotetratriacontane-2,5,8,11,14,17,20,23,26,29,32-undecanone] ([NMehSer](Me)I[Sar][Sar][NMePhe(4-Me)][Sar][Phe(3-I)][Nle][NMeS](Me)L[NMeD]-Piperidide; lactam N-11) |
| 19 | 3.6 | CCCC[C@@H]1NC(=O)[C@H](Cc2cccc(F)c2F)NC(=O)CN(C)C(=O)[C@H](Cc2ccc(OC)cc2)N(C)C(=O)[C@@H]2CCN2C(=O)[C@@H]2CCCCN2C(=O)[C@H](C2CCC2)NC(=O)[C@H](CC(C)C)N(C)C(=O)C[C@@H](C(=O)N2CCCCC2)N(C)C(=O)[C@H](CC(C)C)NC(=O)C(C)(C)N(C)C1=O [Compound 5, (1S,6S,9S,15S,18S,24S,27S,31S,34S)-18-butyl-34-cyclobutyl-15-[(2,3-difluorophenyl)methyl]-24,31-diisobutyl-9-[(4-methoxyphenyl)methyl]-8,11,20,21,21,26,30-heptamethyl-27-(piperidine-1-carbonyl)-3,8,11,14,17,20,23,26,30,33,36-undecazatricyclo[34.4.0.03,6]tetracontane-2,7,10,13,16,19,22,25,29,32,35-undecaone] ([NMeL][Gly(cBu)][Pip][Aze][NMeY](Me)[Sar][X5][Nle][NMeAib]L[NMeD]-Piperidide; lactam N-11) |
